# Assay results as given in patent US8252532B2 (University of Connecticut, priority 2006, dated 2012).
# How the values were obtained:
# Ovcar-3 cells = assay: Apoptotic nuclei in Ovcar-3 cells (DAPI staining); format: cell-based, human; details: for effect on CDDP-induced apoptosis: simultaneous treatment with CDDP
# Description: In order to assess the effects of CDDP, P4 and PGRMC1's role in regulating the viability of ovarian cancer cells, Ovcar-3 cells were used. Ovcar-3 cells were maintained in culture as described by Kim et al (23). Briefly, Ovcar-3 cells were cultured in RPMI-1640 medium (Invitrogen, Grand Island, N.Y.) supplemented with 10% fetal bovine serum (HyClone, Logan, Utah), 100 U/ml penicillin G, 100 ug/ml streptomycin (Invitrogen, Grand Island, N.Y.), at 37° C. in a humidified atmosphere of 5% CO2 incubator. The Ovcar-3 cells were cultured for 72 hours before each experiment.
# PGRMC1 siRNA treatment was used to deplete PGRMC1 levels (28). In this protocol, PGRMC1 depletion was performed by transfecting PGRMC1 siRNA using siPORT NeoFX transfection protocol outlined by Ambion. Studies were conducted in which either scramble (control) siRNA (Cat#: AM4611) or one of three pre-designed human PGRMC1 siRNAs (Ambion siRNA ID#: 18430, 18340, 18248) were transfected at a concentration of 30 nM. Levels of PGRMC1 mRNA and protein were assessed by real-time PCR and western blot, respectively as previously described. In addition and immunocytochemical analysis confirmed that PGRMC1 siRNA (ID#: 18248) was an effective PGRMC1 siRNA. This siRNA targeted Exon 1 of PGRMC1 (forward, 5′-[…]tt and reverse, 5′-[…]tt). Based on this, Ovcar-3 cells were cultured for 3 days and then treated for 3 days with either scramble or PGRMC1 siRNA (ID#: 18248). The cells were then treated for 24 h with CDDP (15 μM) and P4 (1 μM) and observed apoptosis as described below.
# Finally, a blocking antibody study was conducted as previously described (25). Ovcar-3 were plated and cultured for 3 days as previously described. The cells were then washed and cultured for 24 h with serum-supplemented containing CDDP (15 μM) and P4 (1 μM) and either rabbit IgG (20 μg/ml) or the antibody to PGRMC1 (20 μg/ml). After culture the cells were rinsed in Krebs/Hepes buffer and stained to detect apoptotic nuclei as described below.
# Regardless of the experimental design, in situ DNA staining was used to identify apoptotic nuclei by adding DAPI directly to the culture medium at a final concentration of 2 μg/ml. The cultures were incubated for 10 min at 37° C. in the dark. After staining, the cells were observed under epi-fluorescent optics. Under these conditions only cells with condensed or fragmented nuclei were stained intensely with DAPI. The DAPI-stained cells also stained with YOPRO-1, a well-known nuclear stain that identifies apoptotic cells (19, 25, 28). These cells were considered to be apoptotic (25). At least 100 cells/culture well were counted and the percentage of apoptotic nuclei in each well determined. For the data shown in FIGS. 12 and 15, cells were selected randomly. In FIG. 6 the apoptotic status (i.e. DAPI staining; blue fluorescence) was determined for 100 transfected cells per well as indicated by their GFP (i.e. green) fluorescence.
# PGRMC1 = PGRMC1 mRNA and protein levels in Ovcar-3 cells after siRNA (real-time PCR, western blot, immunocytochemistry); format: cell-based, human; details: 72 h treatment; vs scramble control
# Description: Real Time PCR. Quantitative measurements of PGR and PGRMC1 mRNA were made on cDNA samples provided by OriGene. […] Primers were evaluated with NCBI blast to confirm product specificity and products were designed to cross intron/exon borders. Primers used were: PGR forward [NT] ID NO: 13) and reverse [NT] ID NO: 14) and PGRMC-1 forward [NT] ID NO: 15) and reverse [NT] ID NO: 16). Quantitative real time PCR was performed on the MyiQ Single-Color Real-Time PCR Detection System (Bio-Rad, Hercules, Calif.). Samples were resuspended in twenty-five μl of the iQ SyberGreen Supermix (Bio-Rad) containing appropriate primers. Relative gene expression was evaluated with Bio-Rad iQ5 software using the ΔCT method (24). Each gene was evaluated on two separate identical array plates, which were loaded with equal amounts of cDNA per well as described by the manufacturer. End products were also run on agarose gels to confirm product size. Immunohistochemistry and immunocytochemistry were also used to assess the localization of PGRMC1 in formalin-fixed paraffin-embedded tissue sections of ovarian cancers and Ovcar-3 cells, respectively. […] Levels of PGRMC1 mRNA and protein were assessed by real-time PCR and western blot, respectively as previously described. […]
# [1] = test system: human granulosa/luteal cells; assay: Apoptotic nuclei in human granulosa/luteal cells after serum withdrawal (TUNEL, in situ DNA staining); format: cell-based
# Description: After the oocytes were removed, follicular aspirates were pooled and centrifuged at 250×g for 10 minutes. The cell pellet was resuspended in serum-free culture medium, layered on HISTOPAQUE-1077 and centrifuged for 30 minutes at 400×g. After centrifugation, the opaque interface containing the granulosa/luteal cells was carefully aspirated and transferred into a 15 ml sterile conical centrifuge tube. The cells were then washed by resuspending the cells in 12 ml of PBS and centrifuging them at 250×g for 10 minutes. This was repeated two additional times. The cell pellet was then resuspended in 1 ml of 0.25% trypsin-EDTA solution and incubated for 5 minutes to dissociate the cells. After trypsinization, 5 ml of serum-supplemented medium was added and the cells were centrifuged at 250×g for 10 minutes. The cells were then resuspended in serum-supplemented medium, counted in a hemacytometer and resuspended to yield a final concentration 1 million cells/ml.
# Plastic lab-tek slides (BD Bioscience, Bedford, Mass.), which had been previously coated with Growth Factor Reduced Matrigel Matrix (BD Bioscience, Bedford, Mass.), were plated at about 60,000 cells per well in 0.5 ml of serum-supplemented medium with 2 U/ml (IU) of hCG. The medium was changed after 24 hours to remove any remaining blood cells or non-attached granulosa/luteal cells and the cultures continued for two additional days. The cultures were then subjected to the various experimental treatments as outlined below.
# Both TUNEL and in situ DNA staining were used to identify apoptotic nuclei. For the TUNEL assay human granulosa/luteal cells were cultured for 5 hours in serum-free medium and then fixed in 10% formalin. The cells were stained using the Apoptag Peroxidase In Situ kit staining according to manufacture's instructions (Chemicon, Temecula, Calif.). In situ DNA staining was done by adding hydroethidine directly to the culture medium at a final concentration of 3.5 μg/ml. The cultures were incubated for 15 minutes at room temperature in the dark. After staining, the cells observed under epi-fluorescent optics. Under these conditions only cells with condensed or fragmented nuclei were stained intensely with hydroethidine. These cells were considered to be apoptotic in accordance with prior publications in the field. At least 100 cells/culture well were counted and the percentage of apoptotic nuclei in each well determined.
# Human granulosa/luteal cells were plated on lab tek slides and cultured for three days as previously described. […] After culture the cells were raised in Krebs/Hepes buffer and stained to detect apoptotic nuclei as taught by Engmann et al., J. of Clinical Endocrinology and Metabolism 91(12): 4962-4968 (2006). One hundred cells in each chamber were counted and the percentage of apoptotic nuclei determined as previously described.
compound,measurement,setting,value
"N.N.[Cl][Pt][Cl] [CDDP, cis-diamminedichloroplatinum(II)]",percentage of cells that undergo apoptosis (dose dependence),"Ovcar-3 cells; 10% fetal bovine serum, FIG. 12B",dose-dependent increase
same,percentage of cells in which apoptosis is induced,"Ovcar-3 cells; in the presence of serum, within 24 h",40 to 60%
"PGRMC1 siRNA (ID#: 18248): Ambion human PGRMC1 siRNA targeting Exon 1, nucleotides 365-386; SEQ ID NO: 7 and 8 (chain 1 GGUGUUCGAUGUGACCAAATT; chain 2 UUUGGUCACAUCGAACACCTT; chemistry not given here)",enhancement of the killing effect of CDDP in the presence of P4,"Ovcar-3 cells; PGRMC1 depleted with siRNA, CDDP and P4",≥ 50%
same,effect on P4's ability to inhibit CDDP-induced apoptosis,"Ovcar-3 cells; siRNA 3 days, then 24 h CDDP (15 μM) and P4 (1 μM), p<0.05",attenuated
same,PGRMC1 levels by immunocytochemical analysis,PGRMC1,suppress PGRMC1 levels
"CC(=O)[C@H]1CC[C@H]2[C@@H]3CCC4=CC(=O)CC[C@]4(C)[C@H]3CC[C@]12C [progesterone, 4-Pregnene-3,20-dione]",effect on apoptosis due to serum-withdrawal in presence of IgG or IgY,"[1]; 1 μM progesterone, IgG or IgY control",suppressed apoptosis
same,effect on apoptosis due to serum withdrawal,[1]; all doses tested,suppressed apoptosis
same,suppression of serum-withdrawal induced apoptosis in presence of RU486,"[1]; progesterone 1 μM, RU486 5 μM",still capable of suppressing serum-withdrawal induced apoptosis
same,ability to override the effect of RU486,"[1]; progesterone 1 μM, RU486 25 and 50 μM",could not override the effect of RU486
same,lowest effective dose suppressing apoptosis,[1]; serum-free medium,10 nM
same,reduction of the killing effect of CDDP,Ovcar-3 cells; addition of P4 to CDDP in serum,about 40%
same,concentration of maximum effect on inhibition of apoptosis induced by serum withdrawal,Ovcar-3 cells; serum withdrawal,~1 µM
same,effect on rate of apoptosis in serum-free media,"Ovcar-3 cells; serum-free media for 5 h, p<0.05",attenuated
same,effect on CDDP-induced apoptosis,"Ovcar-3 cells; 5 h of culture, p<0.05",attenuated
same,effect on CDDP-induced apoptosis,"Ovcar-3 cells; 24 h of culture, p<0.05",attenuated
CC#C[C@]1(O)CC[C@H]2[C@@H]3CCC4=CC(=O)CCC4=C3[C@@H](c3ccc(N(C)C)cc3)C[C@@]21C [RU486],percentage of apoptotic nuclei,[1]; 25 and 50 μM doses of RU486,greater than 70%
